Test results reported in patent publication US20090018111A1, “Novel Antimicrobial Medicament” (priority 2004, published 2009).
Read-outs that look alike come from different tables or passages of the source.

What was measured:
Test in all cases: Sensitivity test (agar dilution)
E. faecium ATCC19434 = assay type: cell-based, Enterococcus faecium; conditions: Enterococcus faecium, E. faecium ATCC19434
Summary of the method: (§1)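 Agar dilution, MHA; twofold serial drug dilutions (single or combination). Overnight 37° C cultures in gelatin-containing buffered saline, ~10^6 CFU/ml, ~5 μl spots. Endpoint MIC; FIC index calculated.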

P. vurgalis OX-19 = assay type: cell-based, Proteus vulgaris; conditions: Proteus vulgaris, P. vurgalis OX-19
Summary of the method: as §1

P. vulgaris GN7919 = assay type: cell-based, Proteus vulgaris; conditions: Proteus vulgaris, P. vulgaris GN7919
Summary of the method: as §1

[1] = system: S. aureus SP-7928 (homo-MRSA); assay type: cell-based, Staphylococcus aureus; conditions: Staphylococcus aureus, MRSA, S. aureus SP-7928 (homo-MRSA)
Summary of the method: as §1

[2] = system: S. aureus MS94088 (hetero-MRSA); assay type: cell-based, Staphylococcus aureus; conditions: Staphylococcus aureus, MRSA, S. aureus MS94088 (hetero-MRSA)
Summary of the method: as §1

S. aureus 209P = assay type: cell-based, Staphylococcus aureus; conditions: Staphylococcus aureus, 209P, S. aureus 209P
Summary of the method: as §1

Str. pyogenes Cook = assay type: cell-based, Streptococcus pyogenes; conditions: Streptococcus pyogenes, Str. pyogenes Cook
Summary of the method: as §1

S. maltophilia IID1275 = assay type: cell-based, Stenotrophomonas maltophilia; conditions: Stenotrophomonas maltophilia, S. maltophilia IID1275
Summary of the method: as §1

C. freundii GN346 = assay type: cell-based, Citrobacter freundii; conditions: Citrobacter freundii, C. freundii GN346
Summary of the method: as §1

S. epidermidis IAM1296 = assay type: cell-based, Staphylococcus epidermidis; conditions: Staphylococcus epidermidis, S. epidermidis IAM1296
Summary of the method: as §1

M. catarrhalis ATCC8176 = assay type: cell-based, Moraxella catarrhalis; conditions: Moraxella catarrhalis, M. catarrhalis ATCC8176
Summary of the method: as §1

M. catarrhalis ATCC25238 = assay type: cell-based, Moraxella catarrhalis; conditions: Moraxella catarrhalis, M. catarrhalis ATCC25238
Summary of the method: as §1

E. cloacae GN7471 = assay type: cell-based, Enterobacter cloacae; conditions: Enterobacter cloacae, E. cloacae GN7471
Summary of the method: as §1

[3] = ATCC19434, drug alone, read-out: MIC alone
[4] = GN7919, drug alone, read-out: MIC alone
[5] = Concomitant (PAPM:SM = 1:1), read-out: MIC concomitant
[6] = drug alone, read-out: MIC alone
[7] = IID1275, drug alone, read-out: MIC alone
[8] = GN346, drug alone, read-out: MIC alone
[9] = IAM1296, drug alone, read-out: MIC alone
[10] = ATCC8176, drug alone, read-out: MIC alone
[11] = ATCC25238, drug alone, read-out: MIC alone
[12] = GN7471, drug alone, read-out: MIC alone
[13] = Concomitant (PIPC:SM = 1:1), read-out: MIC concomitant

`CC(=N)N1CC[C@H](SC2=C(C(=O)O)N3C(=O)[C@H]([C@@H](C)O)[C@H]3C2)C1` [PAPM, panipenem] showed an MIC (E. faecium ATCC19434; ATCC19434, Concomitant (PAPM:SM = 1:1), read-out: MIC concomitant) of 0.125 µg/mL, an MIC (E. faecium ATCC19434; [3]) of 8 µg/mL and an MIC (P. vurgalis OX-19; OX19, Concomitant (PAPM:SM = 1:1), read-out: MIC concomitant) of 0.063 µg/mL. For the same molecule, the MIC (P. vurgalis OX-19; OX19, drug alone, read-out: MIC alone) was 1 µg/mL, the MIC (P. vulgaris GN7919; GN7919, Concomitant (PAPM:SM = 1:1), read-out: MIC concomitant) was 0.5 µg/mL and the MIC (P. vulgaris GN7919; [4]) was 1 µg/mL. The MIC [1, 5] was 2 µg/mL, the MIC [1, 6] was > 32 µg/mL and the MIC [2, 5] was 0.25 µg/mL. For the same molecule, the MIC [2, 6] was 0.5 µg/mL, the MIC (S. aureus 209P; [5]) was 0.004 µg/mL and the MIC (S. aureus 209P; [6]) was 0.031 µg/mL. The MIC (Str. pyogenes Cook; [5]) was ≤ 0.002 µg/mL, the MIC (Str. pyogenes Cook; [6]) was 0.008 µg/mL and the MIC (S. maltophilia IID1275; IID1275, Concomitant (PAPM:SM = 1:1), read-out: MIC concomitant) was > 32 µg/mL. For the same molecule, the MIC (S. maltophilia IID1275; [7]) was > 32 µg/mL, the MIC (C. freundii GN346; GN346, Concomitant (PAPM:SM = 1:1), read-out: MIC concomitant) was 0.25 µg/mL and the MIC (C. freundii GN346; [8]) was 0.5 µg/mL. For the same molecule, the MIC (S. epidermidis IAM1296; IAM1296, Concomitant (PAPM:SM = 1:1), read-out: MIC concomitant) was 0.016 µg/mL, the MIC (S. epidermidis IAM1296; [9]) was 0.5 µg/mL and the MIC (M. catarrhalis ATCC8176; ATCC8176, Concomitant (PAPM:SM = 1:1), read-out: MIC concomitant) was ≤ 0.002 µg/mL. For the same molecule, the MIC (M. catarrhalis ATCC8176; [10]) was 0.008 µg/mL, the MIC (M. catarrhalis ATCC25238; ATCC25238, Concomitant (PAPM:SM = 1:1), read-out: MIC concomitant) was ≤ 0.002 µg/mL and the MIC (M. catarrhalis ATCC25238; [11]) was 0.008 µg/mL. It also gave an MIC (E. cloacae GN7471; GN7471, Concomitant (PAPM:SM = 1:1), read-out: MIC concomitant) of 0.125 µg/mL and an MIC (E. cloacae GN7471; [12]) of 0.25 µg/mL.

With `CCN1CCN(C(=O)N[C@@H](C(=O)N[C@@H]2C(=O)N3[C@@H]2SC(C)(C)[C@@H]3C(=O)O)c2ccccc2)C(=O)C1=O` [PIPC, piperacillin] the MIC (E. faecium ATCC19434; ATCC19434, Concomitant (PIPC:SM = 1:1), read-out: MIC concomitant) was 0.125 µg/mL, the MIC (E. faecium ATCC19434; [3]) was 8 µg/mL and the MIC (P. vurgalis OX-19; OX19, read-out: MIC alone, drug alone) was 0.008 µg/mL. For the same molecule, the MIC (P. vurgalis OX-19; OX19, read-out: MIC concomitant, Concomitant (PIPC:SM = 1:1)) was 0.008 µg/mL, the MIC (P. vulgaris GN7919; GN7919, Concomitant (PIPC:SM = 1:1), read-out: MIC concomitant) was 0.5 µg/mL and the MIC (P. vulgaris GN7919; [4]) was > 32 µg/mL. For the same molecule, the MIC [1, 13] was 1 µg/mL, the MIC [1, 6] was > 32 µg/mL and the MIC [2, 13] was 0.125 µg/mL. The MIC [2, 6] was > 32 µg/mL, the MIC (S. aureus 209P; [13]) was 0.004 µg/mL and the MIC (S. aureus 209P; [6]) was 0.25 µg/mL. The MIC (Str. pyogenes Cook; [13]) was ≤ 0.002 µg/mL, the MIC (Str. pyogenes Cook; [6]) was 0.031 µg/mL and the MIC (S. maltophilia IID1275; IID1275, Concomitant (PIPC:SM = 1:1), read-out: MIC concomitant) was > 32 µg/mL. For the same molecule, the MIC (S. maltophilia IID1275; [7]) was > 32 µg/mL, the MIC (C. freundii GN346; GN346, Concomitant (PIPC:SM = 1:1), read-out: MIC concomitant) was 8 µg/mL and the MIC (C. freundii GN346; [8]) was 1 µg/mL. For the same molecule, the MIC (S. epidermidis IAM1296; IAM1296, Concomitant (PIPC:SM = 1:1), read-out: MIC concomitant) was 0.016 µg/mL, the MIC (S. epidermidis IAM1296; [9]) was 2 µg/mL and the MIC (M. catarrhalis ATCC8176; ATCC8176, Concomitant (PIPC:SM = 1:1), read-out: MIC concomitant) was ≤ 0.002 µg/mL. For the same molecule, the MIC (M. catarrhalis ATCC8176; [10]) was 0.016 µg/mL, the MIC (M. catarrhalis ATCC25238; ATCC25238, Concomitant (PIPC:SM = 1:1), read-out: MIC concomitant) was ≤ 0.002 µg/mL and the MIC (M. catarrhalis ATCC25238; [11]) was 0.008 µg/mL. For the same molecule, the MIC (E. cloacae GN7471; GN7471, Concomitant (PIPC:SM = 1:1), read-out: MIC concomitant) was 8 µg/mL and the MIC (E. cloacae GN7471; [12]) was 16 µg/mL.
